Results: publication PMC7604311, “Caprine Bactenecins as Promising Tools for Developing New Antimicrobial and Antitumor Drugs” (Frontiers in Cellular and Infection Microbiology, 2020)
Ends that are not written are not given here.

How the values were obtained:
[1] = MTT test; assay type: cell-based; settings: human, serum-free RPMI-1640, overnight incubation, mean ± SD of three independent tests, read-out: IC50 of cytotoxic action toward human PBMC
Protocol: Cytotoxic activity of peptides toward various types of eukaryotic cells was assessed using the standard MTT [3-(4,5-Dimethylthiazol-2-yl)-2,5-diphenyltetrazolium bromide] test ([Mosmann, 1983]). Human peripheral blood mononuclear cells (PBMC) were isolated from the peripheral blood of healthy donors. Whole heparinized blood diluted 3-fold with sterile PBS was carefully layered upon the 5 ml of the sterile Ficoll-400 (Pharmacia, Sweden) with a density of 1.077 in a sterile 50 ml conical tube and then centrifuged at 600 g and 4°C for 40 min. The mononuclear “ring” remaining above the Ficoll was collected using a transfer pipette and placed in another tube. Cells were washed twice with sterile PBS, resuspended in RPMI-1640 culture medium and immediately used for the test. Tumor cell lines were purchased from Biolot (Saint Petersburg, Russia) and cultured at 37°C and 5% CO2 in RPMI-1640 medium (Biolot, Saint Petersburg, Russia) supplemented with 10% fetal bovine serum, glutamine, and penicillin-streptomycin combination. For the experiments, cells were washed from the medium they were growing in and resuspended in serum- and antibiotic-free RPMI-1640. Cells were added at not less than 2 × 10^4 per well in sterile flat bottom 96-well microplates containing serial dilutions of tested peptides in RPMI-1640. For the positive control (100% viable cells), RPMI-1640 medium was used instead of the peptide solution, whereas for the negative control (0% viable cells) medium replaced both peptide and cells. Test plates were incubated at 37°C and 5% CO2 overnight, after which MTT metabolic marker in PBS (5 mg/ml) was introduced into each well. After an additional 4 h incubation, the reaction was stopped by adding isopropanol supplemented with 0.04 M HCl, in which the formazan crystals (formed as a result of MTT reduction in presence of metabolically active cells) were dissolved, and OD at 540 nm was measured. Background absorbance at 690 nm was subtracted from the results to countervail any unspecific OD fluctuations. The % of surviving cells was found as:
(2) Survival(%)=(ODsample−OD0% viable)/(OD100% viable−OD0% viable)×100%,
where ODsample, OD0% viable, and OD100% viable are respectively values of the OD at 540 nm minus the OD at 690 nm for the test sample and negative or positive controls. IC50 toxicity values were determined by nonlinear regression analysis of the dose response curves using Sigma Plot 11 (Systat Software Inc., USA). The experiments were repeated three times, with 3 parallels of samples and 4–6 parallels of controls each time.

[2] = tested on: human erythrocytes; settings: cited from earlier work
Description: The majority of AMPs are membranolytic, and even though eukaryotic cell membranes are less anionic than those of bacterial cells, have a lower membrane potential and are protected by the presence of cholesterol ([Matsuzaki, 2009]), they are considered to be a secondary target, affecting the selectivity of AMPs. […] The hemolysis assay is widely utilized for the express analysis of the toxic properties of AMPs, relating to their membranolytic activity. It was previously shown that na ...

[3] = tested on: E. coli ML-35p; assay: Broth microdilution assay (MIC); assay type: cell-based, Escherichia coli; settings: 50% MH broth/50% 10 mM Na-P buffer pH 7.4 with 0.1% BSA, 1×10^6 CFU/ml, 20 h, median of 3–6 independent experiments in triplicate
Protocol: The minimal inhibitory concentrations (MIC) of peptides were determined using microdilution assay in Müller–Hinton (MH) broth in general accordance with the guidelines of the European Committee for Antimicrobial Susceptibility Testing. Test plates were additionally pretreated with 0.1% bovine serum albumin (BSA) in distilled H2O (incubated for 1 h at 37°C) to reduce possible non-specific binding of peptides to the plastic surface of the wells, as proposed for AMP activity measuring ([Tossi et al., 1997]; [Wiegand et al., 2008]). Two-fold serial dilutions of peptides starting with 2 × stock concentration were prepared in sterile 10 mM sodium phosphate (Na-P) buffer, pH 7.4, with 0.1% BSA. Thus, final solutions contained 50% of Na-P diluted peptide and 50% of MH broth with bacteria. Bacteria for testing were grown overnight, then transferred into a fresh portion of 2.1% MH medium and additionally incubated for 2–3 h to obtain bacterial culture in its mid-logarithmic growth phase, which was diluted down to the final concentration of 1 × 10^6 CFU/ml. Concentration of bacteria in growth medium was calculated based on its absorbance at 620 nm.
After 20 h of incubation of AMPs with bacteria MICs were determined as lowest concentrations of AMPs completely preventing the visible growth of bacteria. Tests were performed in 60-well Terasaki microplates (10 µl end volume, V-shaped bottom; Sarstedt, Germany); dilutions in each test were made in triplicate. Final MIC values were calculated as medians based on the results of 3–5 independent experiments.

[4] = tested on: A. baumannii 7226/16; assay type: cell-based, Acinetobacter baumannii; settings: 7226/16, 24 h
Protocol: Quantification of the biofilms forming in the presence of various concentrations of tested AMPs was performed using the crystal violet assay according to general guidelines ([Merritt et al., 2006]). Tests were performed in polystyrene 96-well plates with U-shaped bottom. Peptides were serially diluted in a bacterial growth medium (MH for A. baumannii or TSB for P. aeruguinosa) in a volume of 50 μl per well. Overnight cultures of tested bacteria in a stationary phase of growth were 50 times diluted and introduced into the experimental wells at the same volume of 50 μl. Samples were incubated for 24 h at 37°C. The content of the wells was then shacked out, the plates were gently washed from unattached planktonic bacteria in still water (poured into a large enough vessel); bacterial cells and matrix components adhered to the walls of the wells were stained with a 0.1% aqueous solution of crystal violet dye: 125 μl of dye solution was put into each well and incubated at room temperature for 10 min. […] One hundred and twenty five microliters of crystal violet extract from each well were transferred into a flat-bottomed microtiter plate, and the optical density was measured at a wavelength of 560–595 nm (depending on the maximum of absorption in a particular experiment). […] Presented results are medians calculated based on 3 independent experiments.

[5] = tested on: P. aeruginosa MDR 522/17; assay type: cell-based, Pseudomonas aeruginosa; settings: MDR 522/17, 24 h
Protocol: Quantification of the biofilms forming in the presence of various concentrations of tested AMPs was performed using the crystal violet assay according to general guidelines ([Merritt et al., 2006]). Tests were performed in polystyrene 96-well plates with U-shaped bottom. Peptides were serially diluted in a bacterial growth medium (MH for A. baumannii or TSB for P. aeruguinosa) in a volume of 50 μl per well. Overnight cultures of tested bacteria in a stationary phase of growth were 50 times diluted and introduced into the experimental wells at the same volume of 50 μl. Samples were incubated for 24 h at 37°C. The content of the wells was then shacked out, the plates were gently washed from unattached planktonic bacteria in still water (poured into a large enough vessel); bacterial cells and matrix components adhered to the walls of the wells were stained with a 0.1% aqueous solution of crystal violet dye: 125 μl of dye solution was put into each well and incubated at room temperature for 10 min. After staining dye solution was removed, the plates were washed with clean water and allowed to air-dry. Finally, the bound dye was redissolved by adding 200 μl of 30% acetic acid into each well, incubating it for 15 min at room temperature, and then thoroughly mixing the content of the wells by pipetting. One hundred and twenty five microliters of crystal violet extract from each well were transferred into a flat-bottomed microtiter plate, and the optical density was measured at a wavelength of 560–595 nm (depending on the maximum of absorption in a particular experiment). Experimental samples were made in quadruplicates, and there were 8–9 repeats of control samples without peptides in each test. Presented results are medians calculated based on 3 independent experiments.

[6] = tested on: A. baumannii 7226/16; set-up: key to Susceptibility category: R – resistant; I – intermediate; S – susceptible; settings: initial susceptibility testing of the clinical isolate; ref supplying institutions; cited from earlier work
Description: page 1: Supplementary Material Supplementary Table 1. Susceptibility profiles of tested clinical isolates of bacteria. Gram-negative: Gram-positive: antibiotic E. coli A. baumannii P. aeruginosa K. pneumoniae antibiotic S. aureus ESBL 521/17 7226/16 MDR 522/17 ESBL 344/17 1399/17 AMP* R [≥32] R [≥32 ] R [≥32 ] R [≥32] AMP* R [≥32 ] AMC R [16] - - S [≤2] AMC - CTX R [≥64] - - S [≤1] AMX - CAZ R [≥64] - R [≥64] S [≤1] AZM R [≥4] FEP R [≥64] - R [≥64] S [≤1] VAN S [≤2] ATM R [≥64] - - S [≤1] DOX I [2] IPM S [≤1] R [≥16] I [8] S [≤1] CLI I [2] MEM S [≤0.25 ] R [≥32 ] R [≥16] S [≤0.25] MEM I [4] AM ...

[7] = tested on: K. pneumoniae ESBL 344/17; set-up: key to Susceptibility category: R – resistant; I – intermediate; S – susceptible; settings: initial susceptibility testing of the clinical isolate; ref supplying institutions; cited from earlier work;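 further: each antibiotic is scored as S (susceptible), I (intermediate) or R (resistant), with its MIC listed alongside, in a susceptibility profile of the clinical isolate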
[8] = tested on: E. coli ESBL 521/17; set-up: key to Susceptibility category: R – resistant; I – intermediate; S – susceptible; settings: initial susceptibility testing of the clinical isolate; ref supplying institutions; cited from earlier work
[9] = tested on: S. aureus 1399/17; set-up: key to Susceptibility category: R – resistant; I – intermediate; S – susceptible; settings: initial susceptibility testing of the clinical isolate; ref supplying institutions; cited from earlier work
[10] = tested on: P. aeruginosa MDR 522/17; set-up: key to Susceptibility category: R – resistant; I – intermediate; S – susceptible; settings: initial susceptibility testing of the clinical isolate; ref supplying institutions; cited from earlier work

Row | Compound | IC50 [1] | Hemolytic activity [2] | MIC [3] | Biofilm inhibition [4] | Biofilm inhibition [5] | MIC of antibiotic [6] | Susceptibility category [6] | MIC of antibiotic [7] | Susceptibility category [7] | MIC of antibiotic [8] | Susceptibility category [8] | MIC of antibiotic [9] | Susceptibility category [9] | MIC of antibiotic [10] | Susceptibility category [10]
1 | RFRLPFRRPPIRIHPPPFYPPFRRFL-NH2 [ChBac3.4-NH2] | 18.6 ± 0.8 µM | not hemolytic | 2 µM | 56 ± 12% | 63 ± 9% | – | – | – | – | – | – | – | – | – | –
2 | RFRLPFRRPPIRIHPPPFYPPFRRFL [ChBac3.4-COOH] | 36.2 ± 6.9 µM | – | 2 µM | – | – | – | – | – | – | – | – | – | – | – | –
3 | CC[C@H]1OC(=O)[C@H](C)[C@@H](O[C@H]2C[C@@](C)(OC)[C@@H](O)[C@H](C)O2)[C@H](C)[C@@H](O[C@@H]2O[C@H](C)C[C@H](N(C)C)[C@H]2O)[C@](C)(O)C[C@@H](C)C(=O)[C@H](C)[C@@H](O)[C@]1(C)O [ERY, erythromycin] | – | – | – | – | – | ≥ 32 mg/L | R | ≥ 32 mg/L | R | ≥ 32 mg/L | R | ≥ 32 mg/L | R | ≥ 32 mg/L | R
